Source: patent US20190175633A1, “REACTIVE, LIPOPHILIC NUCLEOSIDE BUILDING BLOCKS FOR THE SYNTHESIS OF HYDROPHOBIC NUCLEIC ACIDS” (Ionovation GmbH, priority 2017, published 2019)
“Also recorded” adds a separate entry of the source.

Assays:
[1] = test system: human colorectal adenocarcinoma cell line HCT15; format: cell-based; conditions: for activity on cell growth (growth inhibition / cytotoxic effect): HCT-15, FIGS. 14 and 15
From the text: The x-axis depicts the molar concentration of the respective compound on a logarithmical scale.

IGR-OV1 cells = experiment: Oncological test against IGR-OV1 cells; format: cell-based, human; conditions: IGR-OV1, FIGS. 12 and 13
From the text: (§1) FIGS. 10 to 17 show the activity of compounds ESP_2.2, ESP_2.5 and ESP_31 according to the invention as well as the comparative examples ESP_2 and ESP_3 (Table 4) in relation to the concentration employed against various different cancer cells. […] The x-axis depicts the molar concentration of the respective compound on a logarithmical scale.
The epithelial morphology of IGR-OV1 cells was retained during in vitro and in vivo passages. Two cytogenetic markers characterize IGR-OV1 cells: a paracentric inversion of chromosome 3, and a translocation between chromosomes 2 and 5. These characteristics make the IGR-OV1 cell line a suitable experimental model for the treatment of human ovarian carcinomas and for biological studies of human solid tumors.

various cancer cells = experiment: Oncological tests, summary over FIGS. 10 to 17; format: cell-based; conditions: ovarian, colon and kidney cancer cells
From the text: as §1

[2] = test system: primary clear renal cell adenocarcinoma (cell line 786-0); experiment: Oncological test against 786-0 cells; format: cell-based; conditions: 786-0, FIGS. 16 and 17
From the text: as §1
This cell line is derived from a primary clear renal cell adenocarcinoma. The cells display both microvilli and desmosomes, and can be grown in soft agar. The cells produce a PTH like peptides that is identical to peptides produced by breast and lung tumors. The peptide has an N terminal sequence similar to PTH, has PTH like activity, and has a molecular weight of 6000 daltons.

SMILES | melting point | other results
CCCCCCCCCCCCCCCCCCN(CCBr)CCCCCCCCCCCCCCCCCC | 69 to 71 °C | –
CCCCCCCCCCCCCCCCCCN1CCCC1 | 25 to 27 °C | –
COc1ccc(C(OC[C@H]2O[C@@H](n3cnc4c(=O)n(C/C=C(\C)CCC=C(C)C)cnc43)C[C@@H]2O)(c2ccccc2)c2ccc(OC)cc2)cc1 [Compound 4a, 9-((2R,4S,5R)-5-((Bis(4-methoxyphenyl)(phenyl)methoxy)-methyl)-4-hydroxytetrahydrofuran-2-yl)-1-((E)-3,7-di-methylocta-2,6-dienyl)-1H-purin-6(9H)-one] | 74 °C | –
COc1ccc(C(OC[C@H]2O[C@@H](n3cnc4c(=O)n(C/C=C(\C)CC/C=C(\C)CCC=C(C)C)cnc43)C[C@@H]2O)(c2ccccc2)c2ccc(OC)cc2)cc1 [Compound 4b, 9-((2R,4S,5R)-5-((Bis(4-methoxyphenyl)(phenyl)methoxy)-methyl)-4-hydroxytetrahydrofuran-2-yl)-1-((2E,6E)-3,7,11-trimethyldodeca-2,6,10-trienyl)-1H-purin-6(9H)-on] | 68 °C | –
CCCCCCCCCC1(CCCCCCCCC)O[C@@H]2[C@H](O1)[C@@H](CO)O[C@H]2n1ccc(=O)[nH]c1=O [Compound 25b, 1-((3aR,4R,6R,6aR)-6-(hydroxymethyl)-2,2-dinonyltetrahydrofuro[3,4-d][1,3]dioxol-4-yl)pyrimidin-2,4(1H,3H)-dione] | 69.8 °C | –
CCCCCCCCCCCCCC1(CCCCCCCCCCCCC)O[C@@H]2[C@H](O1)[C@@H](CO)O[C@H]2n1ccc(=O)[nH]c1=O [Compound 25c, 1-((3aR,4R,6R,6aR)-6-(hydroxymethyl)-2,2-ditridecyltetrahydrofuro[3,4-d][1,3]dioxol-4-yl)pyrimidin-2,4(1H,3H)-dione] | 90.1 °C | –
CCCCCCCCCCCCCCCC1(CCCCCCCCCCCCCCC)OC2C(CO)OC(n3ccc(=O)[nH]c3=O)C2O1 (stereo not drawn) [Compound 25d, 1-(6-Hydroxymethyl-2,2-dipentadecyl-tetrahydro-furo[3,4-d][1,3]dioxol-4-yl)-1H-pyrimidin-2,4-dione] | 93 °C | –
CCCCCCCCCCCCCCCCCCN(CCCCCCCCCCCCCCCCCC)CC(=O)O [Compound 37, N,N-dioctadecylglycine] | 102 to 103 °C | –
CCCCCCCCCCCCCCCCCCN(CCCCCCCCCCCCCCCCCC)C(C)C(=O)OC (stereo not drawn) [Compound 41, Methyl N,N-dioctadecyl-2-aminopropionate] | 44 to 45 °C | –
CCCCCCCCCCCCCCCCCCN(CCCO)CCCCCCCCCCCCCCCCCC [Compound 42, 3-(Dioctadecylamino)propanol] | 48 to 49 °C | –
CCCCCCCCCCCCCCCCCCN(CCCCCCCCCCCCCCCCCC)C(=O)CCC(=O)O [Compound 46, 4-(Dioctadecylamino)-4-oxobutanoic acid] | 68 to 69 °C | –
CCCCCCCCCCCCCCCCCCN(CCCCCCCCCCCCCCCCCC)C(=O)CCC(=O)OC [Compound 47, Methyl 4-(dioctadecylamino)-4-oxobutanoate] | 29 to 30 °C | –
CCCCCCCCCCCCCCCCCCN(CCCCO)CCCCCCCCCCCCCCCCCC [Compound 48a, 4-(Dioctadecylamino)butan-1-ol] | 57 to 58 °C | –
CCCCCCCCCCCCCCCCCCN(CC#CCCl)CCCCCCCCCCCCCCCCCC [Compound 51, 4-Chloro-N,N-dioctadecylbut-2-yn-1-amine] | 51 to 52 °C | –
CCCCCCCCCCCCCCCCCCN(CC#CCN(CCCCCCCCCCCCCCCCCC)CCCCCCCCCCCCCCCCCC)CCCCCCCCCCCCCCCCCC [Compound 52, N,N,N′,N′-Tetraoctadecylbut-2-yne-1,4-diamine] | 55 to 56 °C | –
C#CCN(CC#C)CCCCCCCCCCCCCCCCCC [Compound 57, N-Octadecyl-N,N-diprop-2-ynylamine] | 43 to 44 °C | –
CCCCCCCCCCCCCCCCCCNC(=O)CCC(=O)O [Compound 58, 4-(Octadecylamino)-4-oxobutanoic acid] | 124 to 125 °C | –
CCCCCCCCCCCCCCCCCCNC(=O)CCC(=O)OC [Compound 59, Methyl 4-(octadecylamino)-4-oxobutanoate] | 86 to 87 °C | –
CCCCCCCCCCCCCCCCCCNCCCCO [Compound 60, 4-(Octadecylamino)butan-1-ol] | 68 to 69 °C | –
CCCCCCCCCCCCCCCCCCNC(=O)CCCO [Compound 62, 4-Hydroxy-N-octadecylbutanamide] | 86 to 87 °C | –
C#CCN(CCCCO)CCCCCCCCCCCCCCCCCC [Compound 63, 4-[Octadecyl(prop-2-ynyl)amino]butan-1-ol] | 33 to 34 °C | –
CCOC(=O)CC[C@@]1(C)O[C@@H]2[C@H](O1)[C@@H](COC(c1ccccc1)(c1ccccc1)c1ccc(OC)cc1)O[C@H]2n1ncc(=O)[nH]c1=O [ESP_2.2, Ethyl-3-((3aR,4R,6R,6aR)-4-(3,5-dioxo-4,5-dihydro-1,2,4-triazin-2(3H)-yl)-6-(((4-methoxyphenyl)diphenylmethoxy)methyl)-2-methyltetrahydrofuro[3,4-d][1,3]dioxol-2-yl)propanoate] | – | activity on cell growth (growth inhibition / cytotoxic effect) [1]: increased activity; activity on cell growth (growth inhibition / cytotoxic effect) (IGR-OV1 cells): activity of the compound could be increased
CCOC(=O)CCC1(C)O[C@@H]2[C@H](O1)[C@@H](CO)O[C@H]2n1ncc(=O)n(C/C=C(\C)CC/C=C(\C)CCC=C(C)C)c1=O (stereo partly drawn) [ESP_2.5, Ethyl-3-((3aR,4R,6R,6aR)-4-(3,5-dioxo-4-((2E,6E)-3,7,11-trimethyldodeca-2,6,10-trien-1-yl)-4,5-dihydro-1,2,4-triazin-2 (3H)-yl)-6-(hydroxymethyl)-2-methyltetrahydrofuro[3,4-d][1,3]dioxol-2-yl)propanoate] | – | activity on cell growth (growth inhibition / cytotoxic effect) [1]: increased activity; death of the cells (cytotoxic effect) ([1]; HCT-15, employed in high dosage): over 50%; activity / cytotoxicity against various cancer cells (various cancer cells): particular high cytotoxicity; activity on cell growth (growth inhibition / cytotoxic effect) [2]: high cytotoxic effect; activity on cell growth (growth inhibition / cytotoxic effect) (IGR-OV1 cells): improved inhibition effect
O=c1ccn([C@@H]2O[C@H](CO)[C@@H](O)[C@H]2O)c(=O)[nH]1 [ESP_3, uridine, reference compound] | – | activity on cell growth (growth inhibition / cytotoxic effect) [2]: does not show any activity at all; also recorded: did not show any activity at all; activity on cell growth (growth inhibition / cytotoxic effect) (IGR-OV1 cells): did not even cause a growth inhibition
CCCCCCCCCC1(CCCCCCCCC)OC2[C@@H](CO)O[C@@H](n3ccc(=O)[nH]c3=O)[C@H]2O1 (stereo partly drawn) [ESP_31] | – | activity on cell growth (growth inhibition / cytotoxic effect) [1]: high cytotoxic activity; activity on cell growth (growth inhibition / cytotoxic effect) [2]: cytotoxic effect; activity on cell growth (growth inhibition / cytotoxic effect) (IGR-OV1 cells): vast improvement with respect to the cytotoxic activity
